Data taken from PMC9644403, “L-type Amino Acid Transporter 1 Utilizing Ferulic Acid Derivatives Show Increased Drug Delivery in the Mouse Pancreas Along with Decreased Lipid Peroxidation and Prostaglandin Production” (Molecular Pharmaceutics, 2022).

Tests used:
[1] = tested on: human umbilical vein endothelial cells (HUVECs); experiment: HUVEC viability, WST-1 assay; assay type: cell-based; conditions: WST-1, 24 h
Procedure: As a third in vitro toxicity study in the human blood circulation system, the effects of FA, D1, and D2 on the viability of human umbilical vein endothelial cells (HUVECs; RRID CVCL_2959; Lonza, Italy; Cat. no. CC-2517) were determined using the WST-1 assay (Takara, Takara Bio Europe, Europe, Saint-Germain-en-Laye, France), according to the previously published protocol.[32] Briefly, the cells were cultured according to the manufacturer’s guidelines with the following ingredients: EGM-2-medium + bullet kit (Lonza, Clonetics, Italy), accutase (Sigma-Aldrich, Germany), and HEPES-buffered saline solution (Lonza, Basel, Switzerland). For the assay, the cells were seeded at the density of 7 500 HUVECs per well on 96-well plates and cultured for 24 h to obtain 70% confluency. Subsequently, the cells were treated with studied compounds in multiplicate (n = 6–8) at the concentration of 0.1–100 μM in the growth medium for 24 h (37 °C, 5% CO2). Cells with untreated growth medium represented 100% viability, whereas cells treated with medium containing 0.5% (v/v) methanol served as a negative control for drug solvent. After treating cells for 24 h, medium was removed, the cells were washed with the culture medium (100 μl/well), and 100 μL of WST-1 reagent dissolved in culture medium was added into each well. The plates were incubated at 37 °C with 5% CO2 for 2 h, after which absorbance values were measured at the 450 nm wavelength using a microplate reader (iMARK, Bio-Rad). Additionally, the effects of treatments on HUVEC morphology were examined microscopically using a phase-contrast Opta-Tech inverted microscope equipped with OptaView 7 software (Opta-Tech, Warsaw, Poland) for image analysis.

LAT1 = tested on: LAT1; parameters: method as in PMID 31814871, PMID 35011270; conditions: previous uptake mechanism studies; cited from earlier work

Row | Compound | effect on HUVEC viability at 1–50 μM [1] | affinity toward LAT1 compared to the secondary transport mechanism (LAT1) | overall uptake speed compared to D1 (LAT1) [times]
1 | COc1cc(C=CC(=O)O)ccc1O [ferulic acid, 4-hydroxy-3-methoxycinnamic acid] | no statistically significant effect | – | –
2 | COc1cc(/C=C/C(=O)Nc2cccc(C[C@H](N)C(=O)O)c2)ccc1O [derivative 2] | – | over 20 times | 1.5
